Assay results as given in ChEMBL document CHEMBL1201862, “PubChem BioAssay data set” (2004).
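48-hour exposure; five concentrations; linearly interpolated endpoints. GI50 = concentration required for 50% inhibition of growth.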 Active and inactive are the calls of the source. No stated cut-off is given here; in the data, active = GI50 up to about 1.1 µM and inactive = higher.

Legend:
Assay in all cases: NCI-60 cell line screen, 48 h
786-0 = system: 786-0
A498 = system: A498
A549 = system: A549
ACHN = system: ACHN
BT-549 = system: BT-549
CAKI-1 = system: CAKI-1
CCRF-CEM = system: CCRF-CEM
COLO 205 = system: COLO 205
DU-145 = system: DU-145
EKVX = system: EKVX
HCC 2998 = system: HCC 2998
HCT-116 = system: HCT-116
HCT-15 = system: HCT-15
HL-60 = system: HL-60
HOP-62 = system: HOP-62
HOP-92 = system: HOP-92
HT-29 = system: HT-29
Hs-578T = system: Hs-578T
IGROV-1 = system: IGROV-1
K562 = system: K562
KM12 = system: KM12
LOX IMVI = system: LOX IMVI
M14 = system: M14
MCF7 = system: MCF7
MDA-MB-231 = system: MDA-MB-231
MDA-MB-435 = system: MDA-MB-435
MDA-N = system: MDA-N
MOLT-4 = system: MOLT-4
NCI-H226 = system: NCI-H226
NCI-H23 = system: NCI-H23
NCI-H460 = system: NCI-H460
NCI-H522 = system: NCI-H522
NCI/ADR-RES = system: NCI/ADR-RES
OVCAR-3 = system: OVCAR-3
OVCAR-4 = system: OVCAR-4
OVCAR-5 = system: OVCAR-5
OVCAR-8 = system: OVCAR-8
PC-3 = system: PC-3
RPMI-8226 = system: RPMI-8226
RXF 393 = system: RXF 393
SF-268 = system: SF-268
SF-295 = system: SF-295
SF-539 = system: SF-539
SK-MEL-28 = system: SK-MEL-28
SK-MEL-2 = system: SK-MEL-2
SK-MEL-5 = system: SK-MEL-5
SK-OV-3 = system: SK-OV-3
SN12C = system: SN12C
SNB-19 = system: SNB-19
SNB-75 = system: SNB-75
SR = system: SR
SW-620 = system: SW-620
T47D = system: T47D
TK-10 = system: TK-10
U-251 = system: U-251
UACC-257 = system: UACC-257
UACC-62 = system: UACC-62
UO-31 = system: UO-31
Malme-3M = system: Malme-3M

COc1ccc2oc(C(=O)N3CC(CCl)c4ccc(N)cc43)cc2c1 (centres undefined)
GI50 (786-0): 0.133 µM (active) | GI50 (A498): 0.296 µM (active) | GI50 (A549): 0.303 µM (active) | GI50 (ACHN): 0.147 µM (active) | GI50 (BT-549): 0.299 µM (active) | GI50 (CAKI-1): 0.185 µM (active) | GI50 (CCRF-CEM): 0.36 µM (active) | GI50 (COLO 205): 0.284 µM (active) | GI50 (DU-145): 0.247 µM (active) | GI50 (EKVX): 0.933 µM (active) | GI50 (HCC 2998): 0.489 µM (active) | GI50 (HCT-116): 0.161 µM (active) | GI50 (HCT-15): 0.238 µM | GI50 (HL-60): 0.415 µM (active) | GI50 (HOP-62): 0.995 µM (active) | GI50 (HOP-92): 0.358 µM (active) | GI50 (HT-29): 0.357 µM (active) | GI50 (Hs-578T): 0.857 µM (active) | GI50 (IGROV-1): 0.213 µM (active) | GI50 (K562): 0.39 µM (active) | GI50 (KM12): 0.242 µM (active) | GI50 (LOX IMVI): 0.356 µM (active) | GI50 (M14): 0.805 µM (active) | GI50 (MCF7): 0.465 µM (active) | GI50 (MDA-MB-231): 0.826 µM (active) | GI50 (MDA-MB-435): 0.332 µM (active) | GI50 (MDA-N): 0.553 µM (active) | GI50 (MOLT-4): 0.255 µM (active) | GI50 (NCI-H226): 1.16 µM (inactive) | GI50 (NCI-H23): 0.174 µM (active) | GI50 (NCI-H460): 0.203 µM (active) | GI50 (NCI-H522): 0.0189 µM (active) | GI50 (NCI/ADR-RES): 0.213 µM (active) | GI50 (OVCAR-3): 0.918 µM (active) | GI50 (OVCAR-4): 0.286 µM (active) | GI50 (OVCAR-5): 0.53 µM (active) | GI50 (OVCAR-8): 0.279 µM (active) | GI50 (PC-3): 0.296 µM (active) | GI50 (RPMI-8226): 0.226 µM (active) | GI50 (RXF 393): 0.249 µM (active) | GI50 (SF-268): 0.354 µM (active) | GI50 (SF-295): 0.344 µM (active) | GI50 (SF-539): 0.481 µM (active) | GI50 (SK-MEL-28): 0.42 µM (active) | GI50 (SK-MEL-2): 0.238 µM (active) | GI50 (SK-MEL-5): 0.176 µM (active) | GI50 (SK-OV-3): 1.35 µM (inactive) | GI50 (SN12C): 0.869 µM (active) | GI50 (SNB-19): 1.14 µM (inactive) | GI50 (SNB-75): 0.308 µM (active) | GI50 (SR): 0.16 µM (active) | GI50 (SW-620): 0.348 µM (active) | GI50 (T47D): 0.31 µM (active) | GI50 (TK-10): 2.9 µM (inactive) | GI50 (U-251): 0.333 µM (active) | GI50 (UACC-257): 0.596 µM (active) | GI50 (UACC-62): 0.192 µM (active) | GI50 (UO-31): 0.194 µM (active)

CC1(C2(C)OC(=O)c3ccccc32)OC(=O)c2ccccc21 (centres undefined)
GI50 (786-0): > 100 µM (inactive) | GI50 (A498): > 100 µM (inactive) | GI50 (A549): > 100 µM (inactive) | GI50 (ACHN): > 100 µM (inactive) | GI50 (BT-549): > 100 µM (inactive) | GI50 (CAKI-1): > 100 µM (inactive) | GI50 (COLO 205): > 100 µM (inactive) | GI50 (DU-145): > 100 µM (inactive) | GI50 (HCC 2998): > 100 µM (inactive) | GI50 (HCT-116): > 100 µM (inactive) | GI50 (HCT-15): > 100 µM | GI50 (HL-60): > 100 µM (inactive) | GI50 (HOP-62): > 100 µM (inactive) | GI50 (HOP-92): > 100 µM (inactive) | GI50 (HT-29): > 100 µM (inactive) | GI50 (Hs-578T): 72.6 µM (inactive) | GI50 (IGROV-1): > 100 µM (inactive) | GI50 (KM12): > 100 µM (inactive) | GI50 (LOX IMVI): > 100 µM (inactive) | GI50 (M14): > 100 µM (inactive) | GI50 (MCF7): > 100 µM (inactive) | GI50 (MDA-MB-231): > 100 µM (inactive) | GI50 (MDA-MB-435): > 100 µM (inactive) | GI50 (MDA-N): > 100 µM (inactive) | GI50 (MOLT-4): 83.8 µM (inactive) | GI50 (NCI-H226): > 100 µM (inactive) | GI50 (NCI-H23): > 100 µM (inactive) | GI50 (NCI-H460): > 100 µM (inactive) | GI50 (NCI-H522): 35.9 µM (inactive) | GI50 (NCI/ADR-RES): > 100 µM (inactive) | GI50 (OVCAR-3): > 100 µM (inactive) | GI50 (OVCAR-4): > 100 µM (inactive) | GI50 (OVCAR-8): > 100 µM (inactive) | GI50 (PC-3): > 100 µM (inactive) | GI50 (RPMI-8226): > 100 µM (inactive) | GI50 (RXF 393): > 100 µM (inactive) | GI50 (SF-268): > 100 µM (inactive) | GI50 (SF-295): > 100 µM (inactive) | GI50 (SF-539): > 100 µM (inactive) | GI50 (SK-MEL-28): > 100 µM (inactive) | GI50 (SK-MEL-2): > 100 µM (inactive) | GI50 (SK-MEL-5): > 100 µM (inactive) | GI50 (SK-OV-3): > 100 µM (inactive) | GI50 (SN12C): > 100 µM (inactive) | GI50 (SNB-19): > 100 µM (inactive) | GI50 (SNB-75): > 100 µM (inactive) | GI50 (SR): > 100 µM (inactive) | GI50 (SW-620): > 100 µM (inactive) | GI50 (T47D): > 100 µM (inactive) | GI50 (TK-10): > 100 µM (inactive) | GI50 (U-251): > 100 µM (inactive) | GI50 (UACC-257): > 100 µM (inactive) | GI50 (UACC-62): > 100 µM (inactive) | GI50 (UO-31): > 100 µM (inactive)

COC(=O)NCCc1n[nH]c2c1C(=O)C=C(Nc1ccccc1)C2=O
GI50 (786-0): 47.3 µM (inactive) | GI50 (A498): 47.2 µM (inactive) | GI50 (A549): 36.7 µM (inactive) | GI50 (ACHN): 32.4 µM (inactive) | GI50 (BT-549): 23.4 µM (inactive) | GI50 (CAKI-1): 46.1 µM (inactive) | GI50 (CCRF-CEM): 13.7 µM (inactive) | GI50 (COLO 205): 16.8 µM (inactive) | GI50 (DU-145): 47.5 µM (inactive) | GI50 (EKVX): 27.3 µM (inactive) | GI50 (HCC 2998): 38.2 µM (inactive) | GI50 (HCT-116): 21.7 µM (inactive) | GI50 (HCT-15): 22.4 µM | GI50 (HL-60): 19.2 µM (inactive) | GI50 (HOP-62): 68.2 µM (inactive) | GI50 (HOP-92): 27.7 µM (inactive) | GI50 (HT-29): 24.1 µM (inactive) | GI50 (Hs-578T): 36.7 µM (inactive) | GI50 (IGROV-1): 24.5 µM (inactive) | GI50 (K562): 28.2 µM (inactive) | GI50 (KM12): 18.4 µM (inactive) | GI50 (LOX IMVI): 15.5 µM (inactive) | GI50 (M14): 33.4 µM (inactive) | GI50 (MCF7): 15.5 µM (inactive) | GI50 (MDA-MB-231): 25.9 µM (inactive) | GI50 (MDA-MB-435): 17 µM (inactive) | GI50 (MDA-N): 17.9 µM (inactive) | GI50 (MOLT-4): 19.7 µM (inactive) | GI50 (Malme-3M): 12.7 µM (inactive) | GI50 (NCI-H23): 15.1 µM (inactive) | GI50 (NCI-H460): 32.4 µM (inactive) | GI50 (NCI-H522): 13.5 µM (inactive) | GI50 (NCI/ADR-RES): 28.5 µM (inactive) | GI50 (OVCAR-3): 3.72 µM (inactive) | GI50 (OVCAR-4): 15.4 µM (inactive) | GI50 (OVCAR-5): 29 µM (inactive) | GI50 (OVCAR-8): 17.9 µM (inactive) | GI50 (PC-3): 30.3 µM (inactive) | GI50 (RPMI-8226): 19.1 µM (inactive) | GI50 (RXF 393): 41.2 µM (inactive) | GI50 (SF-268): 26 µM (inactive) | GI50 (SF-295): 30.3 µM (inactive) | GI50 (SF-539): 20.7 µM (inactive) | GI50 (SK-MEL-2): 20.6 µM (inactive) | GI50 (SK-MEL-5): 17.9 µM (inactive) | GI50 (SK-OV-3): 74.6 µM (inactive) | GI50 (SN12C): 34.8 µM (inactive) | GI50 (SNB-19): 28 µM (inactive) | GI50 (SNB-75): 57.3 µM (inactive) | GI50 (SR): 10.9 µM (inactive) | GI50 (SW-620): 25.6 µM (inactive) | GI50 (T47D): 30.1 µM (inactive) | GI50 (TK-10): > 100 µM (inactive) | GI50 (U-251): 15.2 µM (inactive) | GI50 (UACC-257): 16.7 µM (inactive) | GI50 (UACC-62): 17.3 µM (inactive) | GI50 (UO-31): 35.3 µM (inactive)
